# Assay results reported in patent publication US20090209525A1, “ENABLING METHODS TO IDENTIFY ALLOSTERIC MODULATORS OF RECEPTOR ACTIVITY” (priority 2006, published 2009).
# Positions count from the first letter of the chain named. Read-outs that look alike come from different tables or passages of the source.
# What was measured:
# [1] = target: T1, rat M1 Y106A receptor (Rattus norvegicus, UniProt P08482, Y106A); assay: R-SAT functional assay, Y106A mutant; type: cell-based; details: for Shift / EC50 / Eff (%): Table 3; for Shift: EC50 Y106A divided by EC50 wild-type; for Eff (%): maximum response, normalized
# T1 construct: expressed in transfected cells
# T1 sequence (P08482 1-460 Y106A): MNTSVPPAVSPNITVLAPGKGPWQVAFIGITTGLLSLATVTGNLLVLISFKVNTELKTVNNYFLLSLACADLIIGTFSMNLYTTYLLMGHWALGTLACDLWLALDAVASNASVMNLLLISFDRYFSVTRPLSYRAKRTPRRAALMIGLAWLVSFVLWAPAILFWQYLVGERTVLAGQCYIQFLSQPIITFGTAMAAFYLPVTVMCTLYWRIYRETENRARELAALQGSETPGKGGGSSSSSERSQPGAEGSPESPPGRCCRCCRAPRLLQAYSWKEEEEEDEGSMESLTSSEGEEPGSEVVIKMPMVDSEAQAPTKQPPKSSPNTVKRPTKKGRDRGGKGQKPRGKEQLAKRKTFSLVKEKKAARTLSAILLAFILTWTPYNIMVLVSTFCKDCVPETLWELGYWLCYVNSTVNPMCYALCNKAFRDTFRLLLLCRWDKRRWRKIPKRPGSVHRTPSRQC
# Protocol: Cells are co-transfected for 18 h with DMEM containing 0.08 micrograms/ml of an expression vector for the expression of the mutant receptor and 0.3 micrograms/ml pSI-Bgal (Promega, Madison Wis.), and 0.5% v/v Polyfect (Qiagen, Valencia Calif.), as recommended by the manufacturer. On day three, the medium is replaced with DMEM containing 1% PSG, 0.5% calf serum, 2% cyto-sf3 (Kemp Biotechnologies, Frederick, Md.), and varying concentrations of the compounds to be tested. Cells are grown in a humidified atmosphere with 5% ambient CO2 for 5 days. The media is removed from the plates, and beta-galactosidase activity is measured by the addition of o-nitrophenyl -d-galactopyranoside in phosphate-buffered saline with 5% Nonidet P-40. […] The following equation is fitted to the data using GraphPad Prism software (San Diego, Calif.):
# NIH-3T3 cells were grown in 96-well tissue culture plates to 70 to 80% confluence in Dulbecco's modified essential media (DMEM) supplemented with 100 units/ml penicillin, 100 micrograms/ml streptomycin, 0.3 mg/ml L-glutamine (1% PSG, GIBCO) and 10% calf serum (Sigma-Aldrich). Cells were transfected for 18 h with DMEM containing 0.08 micrograms/ml receptor DNA and 0.3 micrograms/ml pSI-Bgal (Promega, Madison Wis.), 0.5% v/v Polyfect (Qiagen, Valencia Calif.). Medium was replaced with DMEM containing 1% PSG, 0.5% calf serum, 2% cyto-sf3 (Kemp Biotechnologies, Frederick, Md.), and varying concentrations of ligand. […] Cells were grown in a humidified atmosphere with 5% ambient CO2 for 5 days. Medium was removed from the plates, and beta-galactosidase activity was measured by the addition of o-nitrophenyl -d-galactopyranoside in phosphate-buffered saline with 5% Nonidet P-40.
# [2] = target: T2, rat M1 S109A receptor (Rattus norvegicus, UniProt P08482, S109A); assay: ^3H-NMS radioligand binding, S109A; details: for Shift: Ki S109A divided by Ki wild-type
# T2 construct: expressed in transfected cells
# T2 sequence (P08482 1-460 S109A): T1 sequence (P08482 1-460 Y106A) with A106Y, S109A
# Protocol: Briefly, cell homogenates are prepared from cells transiently or stably expressing wild type or mutant receptors. For transiently transfected cells, HEK cells are transfected with receptor of interest and cells harvested 48 hours post transfection. Cells expressing the receptor, stably or transiently, are harvested using phosphate buffered saline containing 5 mM EDTA, cells centrifuged at low speed and pellet re-suspended in binding buffer. Cell suspension is polytroned and centrifuged at 15,000×g. The pellet is resuspended in binding buffer and centrifugation repeated two more times. The washed cell homogenates are used for the competition binding assays. Competition binding assays are carried out in the presence of fixed amount of cell homogenate, fixed concentration of radioactively labeled orthosteric or allosteric ligand and varying concentrations of the cal under study using appropriate buffer. Incubations are carried out at room temperature for 2 hours. Incubations are terminated by filtration onto GF/B filters using Packard cell harvester followed by 3 washes with ice-cold buffer. Radioactivity retained on the filters is quantitated using Packard Top Count using Microscint 20 scintillation fluid. […] The membranes prepared above are incubated with a labeled ligand in 25 mM sodium phosphate, 5 mM magnesium chloride, 0.01% BSA two hours at room temperature. The binding reaction is stopped by rapid filtration onto GF/B filters. […] The pKd values (pKd=−log Kd) of the labeled ligand are calculated.
# Radioligand binding assays were carried out in 25 mM sodium phosphate, 5 mM magnesium chloride, 0.01% BSA. Incubations were for two hours at room temperature, and reactions were stopped by rapid filtration onto GF/B filters.
# [3] = target: T3, CHO cell membranes expressing the muscarinic M1 receptor (Homo sapiens, UniProt P11229); assay: Equilibrium ^3H-NMS binding at 2 nM and 10 nM ^3H-NMS
# T3 construct: expressed in transfected cells; host or cells: CHO
# T3 sequence (P11229 1-460): T1 sequence (P08482 1-460 Y106A) with V5A, A106Y, S254T, S309P, K320R, G337A, V413I
# [4] = ^3H-NMS 2 nM and 10 nM, result in words
Shift [1],EC50 ([1]; Y106A),Eff (%) ([1]; Y106A),IC50 [2],Shift [2],"displacement of ^3H-NMS [3, 4]","Emax ([1]; R-SAT, Y106A, read-out: increase of maximum response over response at wild-type)",SMILES,displacement of ^3H-NMS [3]
6,79.4 nM,69 ± 3%,1580 nM,1,completely displace,,"CCCCC1CCN(CCCN2C(=O)COc3cc(F)ccc32)CC1 [AC-260584, 4-[3-(4-Butyl-piperidin-1-yl)-propyl]-7-fluoro-4H-benzo [1,4]oxazin-3-one]",
2,100 nM,112 ± 15%,631 nM,4,completely displace,40%,"Clc1ccc2c(c1)N=C(N1CCNCC1)c1ccccc1N2 [NDMC, 8-chloro-11-(1-piperazinyl)-5H-dibenzo [b,e] [1,4] diazepine]",

SMILES,Shift [1],EC50 ([1]; Y106A),Eff (%) ([1]; Y106A),IC50 [2],Shift [2],"displacement of ^3H-NMS [3, 4]","Emax ([1]; R-SAT, Y106A, read-out: increase of maximum response over response at wild-type)",displacement of ^3H-NMS [3]
"CCCCC1CCN(CCCC(=O)c2ccccc2C)CC1 [AC-42, 4-n-butyl-1-[4-(2-methylphenyl)-4-oxo-1-butyl] piperidine hydrogen chloride]",>8,> 1000 nM,>30 ± — %,2510 nM,0.5,,,complete displacement of ^3H-NMS was not observed
